Data as given in the NIST ThermoML archive (doi:10.1016/j.fluid.2011.09.037).

Test: osmotic coefficient (dimensionless); mn = molality of the nth substance listed, in mol/kg
Settings: 323.15 K, 101 kPa, Liquid, vapor pressure osmometer

CCCCO [butan-1-ol] + CCCCCC[n+]1ccn(C)c1.O=S(=O)([N-]S(=O)(=O)C(F)(F)F)C(F)(F)F
Settings	osmotic coefficient
m1 = 0.0466	0.746
m1 = 0.0832	0.604
m1 = 0.1034	0.574
m1 = 0.1973	0.461
m1 = 0.2989	0.411
m1 = 0.3965	0.362
m1 = 0.4907	0.343
m1 = 0.6881	0.295
m1 = 0.9952	0.245
m1 = 1.304	0.212
m1 = 1.685	0.2
m1 = 2.109	0.18
m1 = 2.479	0.172
m1 = 2.947	0.161
m1 = 3.291	0.162

CCC(C)O (configuration not stated) [butan-2-ol] + CCCCCC[n+]1ccn(C)c1.O=S(=O)([N-]S(=O)(=O)C(F)(F)F)C(F)(F)F
Settings	osmotic coefficient
m1 = 0.0478	0.834
m1 = 0.076	0.769
m1 = 0.1019	0.659
m1 = 0.2141	0.532
m1 = 0.3112	0.443
m1 = 0.4257	0.403
m1 = 0.5354	0.369
m1 = 0.72	0.324
m1 = 1.008	0.285
m1 = 1.311	0.251
m1 = 1.722	0.231
m1 = 2.107	0.219
m1 = 2.477	0.214
m1 = 2.87	0.195

CCCCCO [pentan-1-ol] + CCCCCC[n+]1ccn(C)c1.O=S(=O)([N-]S(=O)(=O)C(F)(F)F)C(F)(F)F
Settings	osmotic coefficient
m1 = 0.0502	0.467
m1 = 0.0781	0.411
m1 = 0.1123	0.372
m1 = 0.1977	0.313
m1 = 0.3009	0.267
m1 = 0.4054	0.24
m1 = 0.4903	0.214
m1 = 0.8026	0.178
m1 = 1.11	0.163
m1 = 1.368	0.149
m1 = 1.723	0.12
m1 = 2.211	0.095
m1 = 2.657	0.096
m1 = 3.231	0.091

CCCO [propan-1-ol] + CCCCCC[n+]1ccn(C)c1.O=S(=O)([N-]S(=O)(=O)C(F)(F)F)C(F)(F)F
Settings	osmotic coefficient
m1 = 0.0281	0.906
m1 = 0.0539	0.866
m1 = 0.081	0.797
m1 = 0.1046	0.716
m1 = 0.2004	0.621
m1 = 0.3018	0.523
m1 = 0.4154	0.46
m1 = 0.519	0.445
m1 = 0.8326	0.386
m1 = 1.14	0.342
m1 = 1.432	0.316
m1 = 1.742	0.306
m1 = 2.247	0.288
m1 = 2.739	0.265
m1 = 3.188	0.247

CC(C)O [propan-2-ol] + CCCCCC[n+]1ccn(C)c1.O=S(=O)([N-]S(=O)(=O)C(F)(F)F)C(F)(F)F
Settings	osmotic coefficient
m1 = 0.0549	0.902
m1 = 0.0805	0.876
m1 = 0.0992	0.841
m1 = 0.2037	0.678
m1 = 0.3092	0.572
m1 = 0.4087	0.524
m1 = 0.5171	0.485
m1 = 0.8189	0.429
m1 = 1.111	0.387
m1 = 1.405	0.355
m1 = 1.712	0.321
m1 = 2.193	0.314
m1 = 2.655	0.304
m1 = 3.207	0.294
